In patent US20220411422A1, “ERBB RECEPTOR INHIBITORS” (Dizal (Jiangsu) Pharmaceutical Co., Ltd., priority 2018, published 2022):

Experiments:
[1] = Blood brain barrier penetration assay in rats (short oral absorption model with blood, plasma and brain binding); format: in vivo; conditions: male, Han Wistar, CSF, Table 5, rat, read-out: Kp,uu,CSF
Protocol: In vitro blood, plasma and brain binding assay was carried out with equilibrium dialysis device. […] At the end of incubation, a 50 μL aliquot from the receiver side and a 5 μL from the donor chamber were taken. The 5 μL sample was further diluted with 45 μL of blank blood, plasma or brain homogenate. Paired samples were matrix-matched with either buffer or blank matrix, and mixed for 2 min, and then precipitated with 150 μL cold acetonitrile with 100 ng/mL tolbutamide as internal standard. After centrifuging at 4000 rpm for 20 min, supernatant was diluted with 0.1% formic acid aqueous solution and analyzed for LC/MS/MS (API 4000, Applied Biosystems, Foster City). […] D is dilution factor. […] A Short oral absorption (SOA) model is an in-vivo screening model to identify brain penetration of a compound. Six male Han Wistar rats purchased from Beijing Vital River were orally dosed with the compound. […] Brain tissue was harvested and homogenized in 3× volume of 100 mM phosphate buffered saline (pH7.4). All samples were stored at ˜−70° C. prior to LC/MS/MS analysis. Standards were prepared by spiking blank plasma, blood, brain homogenate and artificial CSF. […] After 2 min vortex and 5 min centrifugation at 14,000 rpm, supernatant was analyzed by LC/MS/MS (API 4000, Applied Biosystems, Foster City). Two sets of standard curves were run at the beginning and end of each batch from blood sample analysis. For brain and CSF samples, one standard curve was analyzed along with test samples. Total brain levels, expressed as brain/blood ratio (Kp,brain) were measured by AUC(brain)/AUC(blood or plasma) in rodents after oral administration. Similarly, CSF levels represented by a ratio of CSF/blood exposure (Kp,CSF) were determined by AUC(CSF)/AUC(blood or plasma). Free fraction of test compound in biological matrix was determined by in vitro blood and brain binding assay. Kp,uu brain and Kp,uu CSF was calculated by the following equation: Kp,uu brain=AUC(brain)/AUC(blood or plasma)×(fubrain/fublood/plasma) and […] Moreover, the ability of Compounds 6 and 16 to cross BBB was assessed in both rat and monkey by measuring unbound brain-to-plasma partition ratio (Kpuu,brain) and unbound CSF-to-plasma partition ratio (Kpuu,CSF) with the method mentioned above.

pHER2 = target: T1, pHER2 (Homo sapiens, UniProt P04626); test: pHER2 cellular activity in BT474c1 cell line; format: cell-based
T1 construct: pHER2 in cells expressing HER2; endogenous in cells; host or cells: BT474c1
T1 sequence (P04626 23-1255): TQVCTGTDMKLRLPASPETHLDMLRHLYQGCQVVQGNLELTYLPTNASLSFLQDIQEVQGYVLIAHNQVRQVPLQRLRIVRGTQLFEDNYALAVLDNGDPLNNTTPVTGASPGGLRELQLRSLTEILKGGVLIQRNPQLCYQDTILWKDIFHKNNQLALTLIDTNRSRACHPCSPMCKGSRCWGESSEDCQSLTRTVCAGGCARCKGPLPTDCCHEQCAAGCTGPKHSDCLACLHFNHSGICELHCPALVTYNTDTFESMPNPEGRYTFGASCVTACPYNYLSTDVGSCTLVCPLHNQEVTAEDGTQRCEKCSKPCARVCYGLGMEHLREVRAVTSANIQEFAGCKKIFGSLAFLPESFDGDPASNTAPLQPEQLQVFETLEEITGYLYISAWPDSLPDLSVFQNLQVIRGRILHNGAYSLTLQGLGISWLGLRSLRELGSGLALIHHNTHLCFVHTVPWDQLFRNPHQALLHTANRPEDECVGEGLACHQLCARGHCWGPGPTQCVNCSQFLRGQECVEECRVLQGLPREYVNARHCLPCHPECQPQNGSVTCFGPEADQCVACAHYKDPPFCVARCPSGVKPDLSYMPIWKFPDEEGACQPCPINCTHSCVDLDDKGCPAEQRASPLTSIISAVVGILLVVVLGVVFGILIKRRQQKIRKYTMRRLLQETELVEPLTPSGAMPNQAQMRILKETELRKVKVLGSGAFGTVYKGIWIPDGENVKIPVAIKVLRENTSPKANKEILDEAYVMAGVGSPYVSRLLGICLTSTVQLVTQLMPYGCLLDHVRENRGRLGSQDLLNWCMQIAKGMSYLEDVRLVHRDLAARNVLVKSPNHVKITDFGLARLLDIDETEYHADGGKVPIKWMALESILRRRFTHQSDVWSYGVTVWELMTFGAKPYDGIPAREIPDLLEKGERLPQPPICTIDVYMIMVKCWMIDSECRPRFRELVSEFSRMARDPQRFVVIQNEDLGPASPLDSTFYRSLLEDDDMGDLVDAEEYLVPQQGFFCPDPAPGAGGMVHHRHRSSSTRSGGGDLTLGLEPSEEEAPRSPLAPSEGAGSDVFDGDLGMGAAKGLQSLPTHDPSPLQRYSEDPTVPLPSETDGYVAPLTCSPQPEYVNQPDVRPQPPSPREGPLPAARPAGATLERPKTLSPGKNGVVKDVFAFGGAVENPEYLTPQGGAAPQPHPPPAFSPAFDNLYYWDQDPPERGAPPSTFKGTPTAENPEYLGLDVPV
Protocol: A compound's activity of selective inhibition for HER2 wild type amplification can be evaluated with BT474 cell line (ATCC® HTB-20™). The cell line expressed phosphorylated HER2 protein and its proliferation depended on the amplified gene, which could be used for in vitro PD and anti-proliferation assays.
The compounds' inhibition of target modulation were determined as follows: BT474 cells were sorted in 96 well plates (20000 cells/well) with the DMEM medium containing 10% FBS overnight and then treated with tested compounds at a series of concentrations (3 μM, 0.3 μM, 0.1 μM, 0.03 μM, 0.01 μM, 0.003 μM, 0.001 μM, 0.0001 μM). The plates were incubated for 4 h at 37° C. with 5% CO2 and then the HER2 (Y1248) phosphorylation level of cells in each well were measured with MSD Kit (Phospho-ErbB2 (Tyr1248) Assay Whole Cell Lysate Kit: Cat #K151CLD-3). The assay is a electrochemiluminescent method (MESO SCALE DISCOVERY) for determining both phosphorylated and total HER2 of cells with an MSD SECTOR® Imager and then the ratio of p-HER2/total HER2 can be generated by the machine. The percentage of inhibition was got from formula: % inhibition=100×[1−(ratio of sample well−ratio of Min ctrl well)/(ratio of Max−Ratio of Min ctrl well)]. The IC50 values were further calculated as the compounds concentration required for 50% inhibition in best-fit curves using Prism GraphPad 7.0 or Microsoft Xlfit software.

Compound: COc1cc(O[C@H]2CCN(C)CC2(F)F)c2c(Nc3ccc(Oc4ccn5ncnc5c4)c(C)c3)ncnc2c1 (single isomer, unassigned) [Compound 6]
- Kp uu [1]: 0.87
- selectivity between pHER2 in cells expressing HER2 and pEGFR in cells expressing wild type EGFR (pHER2): over 300 fold
- IC50 (pHER2; BT474c1 cell line): 4.4 nM
